Assay results published in patent US4820695A, “C-20-dihydro-deoxy-(cyclic amino)-derivatives of macrolide antibiotics” (priority 1987, dated 1989).
≈ marks a conversion by molar mass, not a printed value. Like-named read-outs stand apart in the source and are kept apart here.

Assays:
[1] = tested on: Escherichia coli N10; experiment: MIC, standard agar-dilution assay (Table IX); assay type: cell-based; settings: read-out: MIC
[2] = tested on: Streptococcus Group D 2041; experiment: MIC, standard agar-dilution assay (Table IX); assay type: cell-based; settings: GROUPD2041, read-out: MIC
[3] = tested on: Staphyloccus aureus X1.1; experiment: MIC, standard agar-dilution assay (Table IX); assay type: cell-based, Staphylococcus aureus; settings: Staphylococcus aureus, read-out: MIC
[4] = tested on: Escherichia coli EC14; experiment: MIC, standard agar-dilution assay (Table IX); assay type: cell-based; settings: read-out: MIC
[5] = tested on: Streptococcus pneumoniae Park I; experiment: MIC, standard agar-dilution assay (Table IX); assay type: cell-based; settings: Streptococcus pneumoniae Park I; agar-dilution; read-out: MIC
[6] = tested on: Staphylococcus aureus V41; experiment: MIC, standard agar-dilution assay (Table IX); assay type: cell-based; settings: Staphylococcus aureus V41, Penicillin-resistant strain, read-out: MIC
[7] = tested on: Streptococcus pyogenes C203; experiment: MIC, standard agar-dilution assay (Table IX); assay type: cell-based; settings: read-out: MIC
[8] = tested on: Haemophilus influenzae 76; experiment: MIC, standard agar-dilution assay (Table IX); assay type: cell-based; settings: Haemophilus influenzae 76, Ampicillin-resistant strain, read-out: MIC
[9] = tested on: Staphylococcus aureus S13E; experiment: MIC, standard agar-dilution assay (Table IX); assay type: cell-based; settings: Staphylococcus aureus, S13E
[10] = tested on: Pasteurella multocida 17E; experiment: MIC, broth-dilution microtiter test (Table X); assay type: cell-based; settings: Bovine isolate, read-out: MIC
Excerpt: (§1) The MIC's in Table X were obtained using conventional broth-dilution microtiter tests.

[11] = tested on: Mycoplasma hyopneumoniae S5972; experiment: MIC, broth-dilution microtiter test (Table X); assay type: cell-based; settings: Mesomycoplasma hyopneumoniae, read-out: MIC
Excerpt: as §1

[12] = tested on: Mycoplasma synoviae 40A; experiment: MIC, broth-dilution microtiter test (Table X); assay type: cell-based; settings: Mycoplasmopsis synoviae, read-out: MIC
Excerpt: as §1

[13] = tested on: Mycoplasma hyorhinis 29E; experiment: MIC, broth-dilution microtiter test (Table X); assay type: cell-based; settings: read-out: MIC
Excerpt: as §1

[14] = tested on: Pasteurella hemolytica 22C; experiment: MIC, broth-dilution microtiter test (Table X); assay type: cell-based; settings: read-out: MIC
Excerpt: as §1

[15] = tested on: Streptococcus sp. 19F; experiment: MIC, broth-dilution microtiter test (Table X); assay type: cell-based; settings: read-out: MIC
Excerpt: as §1

[16] = tested on: Mycoplasma gallisepticum 29C; experiment: MIC, broth-dilution microtiter test (Table X); assay type: cell-based; settings: Mycoplasmoides gallisepticum, read-out: MIC
Excerpt: as §1

[17] = tested on: Staphylococcus aureus; experiment: MIC, broth-dilution microtiter test (Table X); assay type: cell-based; settings: read-out: MIC
Excerpt: as §1

[18] = tested on: Pasteurella multocida 60A; experiment: MIC, broth-dilution microtiter test (Table X); assay type: cell-based; settings: Avian isolate, read-out: MIC
Excerpt: as §1

[19] = tested on: Streptococcus pyogenes C203; experiment: ED50 in mice experimentally infected with S. pyogenes C203 (Table XI); assay type: in vivo; settings: Streptococcus pyogenes, doses given 1 and 4 hours postinfection, read-out: ED50
Procedure: The C-20 modified derivatives of this invention have shown in vivo antimicrobial activity against experimentally-induced infections in laboratory animals. When two doses of test compound were administered to mice experimentally infected with S. pyogenes C203, the activity observed was measured as an ED50 value [effective dose in mg/kg to protect 50% of the test animals: see Warren Wick, et al., J. Bacteriol. 81, 233-235 (1961)].
^a mg/kg × 2; doses given 1 and 4 hours postinfection

[20] = tested on: Klebsiella X26; experiment: MIC, standard agar-dilution assay (Table IX); assay type: cell-based; settings: read-out: MIC
[21] = tested on: Escherichia coli TEM; experiment: MIC, standard agar-dilution assay (Table IX); assay type: cell-based; settings: read-out: MIC
[22] = tested on: Staphylococcus epidermidis EPI1; experiment: MIC, standard agar-dilution assay (Table IX); assay type: cell-based; settings: Staphylococcus epidermidis EPI1; agar-dilution; read-out: MIC
[23] = tested on: Haemophilus influenzae C.L.; experiment: MIC, standard agar-dilution assay (Table IX); assay type: cell-based; settings: Ampicillin-sensitive strain, read-out: MIC
[24] = Titratable groups in 66% aqueous DMF (Tables XIV-XVI); assay type: physicochemical
Excerpt: ^c Run in 66% aqueous DMF
^d Run in 66% aqueous DMF

[25] = tested on: Streptococcus Group D X66; experiment: MIC, standard agar-dilution assay (Table IX); assay type: cell-based; settings: read-out: MIC
[26] = tested on: Staphylococcus aureus X400; experiment: MIC, standard agar-dilution assay (Table IX); assay type: cell-based; settings: Staphylococcus aureus X400, Methicillin-resistant strain, read-out: MIC
[27] = tested on: Staphylococcus epidermidis 222; experiment: MIC, standard agar-dilution assay (Table IX); assay type: cell-based; settings: read-out: MIC
[28] = tested on: Pasteurella multocida; experiment: Pasteurella infection in one-day-old chicks, subcutaneous administration (Table XII); assay type: in vivo; settings: Administered subcutaneously, 30 mg/kg × 2, 1 and 4 hours post-challenge
Procedure: Many of the C-20 modified derivatives of this invention have also shown in vivo antibacterial activity against infections induced by gram-negative bacteria. Tables XII and XIII summarize the results of tests in which illustrative compounds were evaluated against a Pasteurella infection in one-day-old chicks. The compounds were administered parenterally or orally after challenge of the chicks with Pasteurella multocida (0.1 ml of a 10^-4 dilution of a twenty-hour tryptose broth culture of an avian P. multocida given subcutaneously). In these tests, unless indicated otherwise, all non-medicated infected chicks died within 24 hours of Pasteurella challenge. In the tests summarized in Table XII, the compounds were administered by subcutaneous injection at a dosage of 30 mg/kg, 1 and 4 hours post-challenge of the chicks with P. multocida. In the tests summarized in Table XIII the compounds were administered in medicated drinking water (at a level of 2 g/gal) available from 4 to 20 hours prior to challenge of the chicks with P. multocida and during the 3 -day test period.
^a Administered subcutaneously; 30 mg/kg × 2

Question: For CCC1OC(=O)CC(O)C(C)C(OC2OC(C)C(OC3CC(C)(O)C(O)C(C)O3)C(N(C)C)C2O)C(CCN2CCCCCC2)CC(C)C(=O)C=CC(C)=CC1COC1OC(C)C(O)C(O)C1OC (stereo not shown) [Compound M3, 20-DH-DO-20-(hexahydroazepin-1-yl)macrocin], which MIC [1] is on record?
Answer: > 128 µg/mL

Question: What about the MIC [2] of the same compound?
Answer: > 128 µg/mL

Question: And the MIC [3]?
Answer: 4 µg/mL (≈ 4.06 µM)

Question: What about the MIC [4] of the same compound?
Answer: > 128 µg/mL

Question: What about the MIC [5] of the same compound?
Answer: 2 µg/mL (≈ 2.03 µM)

Question: What about the MIC [6] of the same compound?
Answer: 8 µg/mL (≈ 8.12 µM)

Question: And the MIC [7]?
Answer: 4 µg/mL (≈ 4.06 µM)

Question: And the MIC [8]?
Answer: 128 µg/mL (≈ 130 µM)

Question: And the MIC [9]?
Answer: 8 µg/mL (≈ 8.12 µM)

Question: And the MIC [10]?
Answer: > 50 µg/mL

Question: What about the MIC [11] of the same compound?
Answer: 12.5 µg/mL (≈ 12.7 µM)

Question: And the MIC [12]?
Answer: 25 µg/mL (≈ 25.4 µM)

Question: And the MIC [13]?
Answer: > 50 µg/mL

Question: And the MIC [14]?
Answer: 50 µg/mL (≈ 50.7 µM)

Question: And the MIC [15]?
Answer: 50 µg/mL (≈ 50.7 µM)

Question: What about the MIC [16] of the same compound?
Answer: 6.25 µg/mL (≈ 6.34 µM)

Question: And the MIC [17]?
Answer: 12.5 µg/mL (≈ 12.7 µM)

Question: And the MIC [18]?
Answer: > 50 µg/mL

Question: What about the ED50 ([19]; C203, Oral) of the same compound?
Answer: > 100 mg/kg

Question: What about the ED50 ([19]; C203, sc, Subcutaneous) of the same compound?
Answer: > 10 mg/kg

Question: And the MIC [20]?
Answer: > 128 µg/mL

Question: What about the MIC [21] of the same compound?
Answer: > 128 µg/mL

Question: What about the MIC [22] of the same compound?
Answer: 8 µg/mL (≈ 8.12 µM)

Question: What about the MIC [23] of the same compound?
Answer: 128 µg/mL (≈ 130 µM)

Question: What about the pKa ([24]; 66% aqueous DMF, read-out: Titratable groups) of the same compound?
Answer: 9.4

Question: And the pKa ([24]; 66% aqueous DMF, read-out: Titratable groups (first value))?
Answer: 6.91

Question: And the MIC [25]?
Answer: > 128 µg/mL

Question: And the MIC [26]?
Answer: 32 µg/mL (≈ 32.5 µM)

Question: And the MIC [27]?
Answer: 2 µg/mL (≈ 2.03 µM)

Question: What does the source list for CCC1OC(=O)CC(O)C(C)C(OC2OC(C)C(O)C(N(C)C)C2O)C(CCN2CCCCCCCCCCCC2)CC(C)C(=O)C=CC(C)=CC1COC1OC(C)C(O)C(OC)C1OC (stereo not shown) [Compound D10, 20-DH-DO-20-(azacyclotridecan-1-yl)desmycosin]?
Answer: MIC [1]: 32 µg/mL (≈ 34.1 µM); MIC [2]: 4 µg/mL (≈ 4.26 µM); MIC [3]: 0.25 µg/mL (≈ 0.266 µM); MIC [4]: 64 µg/mL (≈ 68.1 µM); Number of Deaths/Number Treated [28]: 10/10; MIC [5]: 0.25 µg/mL (≈ 0.266 µM); MIC [6]: 0.25 µg/mL (≈ 0.266 µM); MIC [8]: 8 µg/mL (≈ 8.52 µM); MIC [9]: 0.25 µg/mL (≈ 0.266 µM); MIC [10]: 1.56 µg/mL (≈ 1.66 µM); MIC [11]: 0.78 µg/mL (≈ 0.83 µM); MIC [12]: ≤ 0.048 µg/mL; MIC [13]: 12.5 µg/mL (≈ 13.3 µM); MIC [14]: 1.56 µg/mL (≈ 1.66 µM); MIC [15]: 0.78 µg/mL (≈ 0.83 µM); MIC [16]: 0.097 µg/mL (≈ 0.103 µM); MIC [17]: 0.39 µg/mL (≈ 0.415 µM); MIC [18]: 3.12 µg/mL (≈ 3.32 µM); ED50 ([19]; C203, Oral): 68 mg/kg; ED50 ([19]; C203, sc, Subcutaneous): < 10 mg/kg; MIC [20]: 16 µg/mL (≈ 17 µM); MIC [21]: 8 µg/mL (≈ 8.52 µM); MIC [22]: 0.25 µg/mL (≈ 0.266 µM); MIC [23]: 4 µg/mL (≈ 4.26 µM); pKa ([24]; Titratable groups): 9.5; pKa ([24]; Titratable groups (first value)): 8; MIC [25]: 4 µg/mL (≈ 4.26 µM); MIC [26]: 0.25 µg/mL (≈ 0.266 µM); MIC [27]: 0.12 µg/mL (≈ 0.128 µM)
